Test system: Human lymphocyte cell stock HPB-ALL
Assay: XTT cell viability assay of apoptosis induction in HPB-ALL cells
Assay type: cell-based
Details: only methotrexate added, no anti-Fas antibody, FIG. 3
Method: Human lymphocyte cell stock HPB-ALL (cf. Morikawa, S., et al. (1978) Int. J. Cancer 21, 166-170) was cultured in RPMI 1640 medium containing 10% FCS (manufactured by Gibco B.R.L. Corporation) at 37° C., in the presence of 5% carbon dioxide gas for three days, and 50 μl of the culture (2.5×10^5 cells/50 μl) were dispensed into each well of a 96-well microplate (manufactured by Sumitomo Bakelite Co., Ltd.). Then, 50 μl of the RPMI medium containing methotrexate (manufactured by Sigma Chemical Company), and an anti-Fas antibody (CH11 or HFE7A, 0.001 mg/ml solution was serially diluted by three times) were added to each well, and was cultured at 37° C.
The cells in the plate to which CH11 was added as an anti-Fas antibody were kept to be cultured at 37° C. overnight. […] The plate was then incubated for 3 hours at 37° C., and the absorbance at 450 nm of each well was measured, to calculate cell viability, using the reducing power of the mitochondria as the index.
The viability of the cells in each well was calculated according to the following equation: […]
wherein “a” is the absorbance of a test well, “b” is the absorbance of a well with no cells and c is the absorbance of a well with no antibody added.

CN(Cc1cnc2nc(N)nc(N)c2n1)c1ccc(C(=O)N[C@@H](CCC(=O)O)C(=O)O)cc1 [methotrexate, Methotrexate]
viability of the cells: almost no change
